For assay [1], the system named is C. difficile. The assay is described as follows: agar dilution MIC assay of anaerobic bacteria. Format: cell-based, Clostridium difficile. How it is done:
Each compound was assayed against a panel of anaerobic bacteria in culture, consisting of Gram-positive organisms, such as Lactobacilli, Bifidobacteria, Clostridium spp., and Gram-negative bacteria, such as […] fragilis spp., according to guidelines of the Clinical and Laboratory Standards Institute (CLSI document M11-A7, CLSI, Wayne, Pa., 2007). […] One tenth mL of diluted bacteria containing 500-1000 colony-forming units (CFU) was plated and spread, and the plates incubated at 37° C. for 24-48 hours. MIC (minimum inhibitory concentration) is equivalent to the lowest concentration in μg/ml at which growth, i.e., colony formation, is not observed. […] Bacteria were assayed using a reference agar dilution method. Drug dilutions and drug-supplemented agar plates were prepared manually. The test organisms were maintained frozen at −80° C. The isolates were sub-cultured on Supplemented Brucella Agar (SBA) plates in a Bactron II anaerobic chamber and incubated for 48 hours at 35-36° C. in the Bactron II anaerobe chamber. Following inoculation, the drug-supplemented plates were incubated at 35° C. for 48 hours in the anaerobic environment (5% hydrogen, 5% carbon dioxide, 90% nitrogen) of the Bactron II. The MIC in μg/ml was read per Clinical and Laboratory Standards Institute guidelines.
(In agar dilution, organisms are placed on agar that contains the substance at set levels.)

The test system of assay [2] is C. diff. (ATCC43255). The assay is described as follows: clindamycin-induced C. diff. infection model in Syrian golden hamsters. Format: in vivo. The conditions noted are these: 50 mg/kg PO bid for 3 days, n = 6 hamsters. The text has this:
Compound 359E was given orally as a suspension in 1% carboxymethylcellulose to Syrian Golden hamsters, pretreated subcutaneously with clindamycin and infected orally with C. diff. (ATCC43255) as described in Table 5.

Where [3] appears, read: C. diff. Strain no. 18285, Table 4.
The mark [4] stands for this setting: C. diff. Strain no. 19265, Table 4.
The mark [5] stands for this setting: C. diff. Strain no. 19273, Table 4.
The mark [6] stands for this setting: C. diff. Strain no. 19281, Table 4.
[7] abbreviates: C. diff. Strain no. 19291, Table 4.
Setting [8] is: C. diff. Strain no. 19369, Table 4.
The mark [9] stands for this setting: C. diff. Strain no. 19382, Table 4.
[10] abbreviates: C. diff. Strain no. 19540, Table 4.
Where [11] appears, read: C. diff. Strain no. 19580, Table 4.
Setting [12] is: C. diff. Strain no. 19680, Table 4.
Where [13] appears, read: C. diff. Strain no. 19681, Table 4.
Where [14] appears, read: C. diff. Strain no. 19683, Table 4.
Setting [15] is: C. diff. Strain no. 19687, Table 4.
[16] abbreviates: C. diff. Strain no. 20066, Table 4.
Setting [17] is: C. diff. Strain no. 20152, Table 4.
[18] abbreviates: C. diff. Strain no. 20307, Table 4.
Where [19] appears, read: C. diff. Strain no. 20494, Table 4.
The mark [20] stands for this setting: C. diff. Strain no. 20680, Table 4.
Setting [21] is: C. diff. Strain no. 20934, Table 4.
Where [22] appears, read: C. diff. Strain no. 21099, Table 4.

≈ marks a conversion by molar mass, not a printed value. Counter-ions that a name gives are not always drawn. Like-named read-outs stand apart in the source and are kept apart here.

For the molecule `O=c1[nH]c(NCc2ccc(Cl)c(Cl)c2)nc2ncn(CCCN3CCOCC3)c12` [Compound 363A], the MIC in assay [1] (setting [3]) stood at 8 µg/mL (≈ 18.3 µM); in assay [1] (setting [4]) it was 8 µg/mL (≈ 18.3 µM); in assay [1] (setting [5]), 4 µg/mL (≈ 9.15 µM); in assay [1] (setting [6]), 8 µg/mL (≈ 18.3 µM); in assay [1] (setting [7]), 4 µg/mL (≈ 9.15 µM); in assay [1] (setting [8]) it was 8 µg/mL (≈ 18.3 µM). In addition, the MIC was 2 µg/mL (≈ 4.57 µM) in assay [1] (setting [9]); 4 µg/mL (≈ 9.15 µM) in assay [1] (setting [10]); 2 µg/mL (≈ 4.57 µM) in assay [1] (setting [11]); 8 µg/mL (≈ 18.3 µM) in assay [1] (setting [12]); 4 µg/mL (≈ 9.15 µM) in assay [1] (setting [13]); 8 µg/mL (≈ 18.3 µM) in assay [1] (setting [14]). Further, the minimal inhibitory concentration (MIC) was found to be 8 µg/mL (≈ 18.3 µM) in assay [1] (setting [15]); 8 µg/mL (≈ 18.3 µM) in assay [1] (setting [16]); 8 µg/mL (≈ 18.3 µM) in assay [1] (setting [17]); 2 µg/mL (≈ 4.57 µM) in assay [1] (setting [18]); 8 µg/mL (≈ 18.3 µM) in assay [1] (setting [19]); 8 µg/mL (≈ 18.3 µM) in assay [1] (setting [20]). For the same molecule, the MIC in assay [1] (setting [21]) worked out at 2 µg/mL (≈ 4.57 µM); in assay [1] (setting [22]), 8 µg/mL (≈ 18.3 µM).
As for `CN[C@H](CC(C)C)C(=O)N[C@H]1C(=O)N[C@@H](CC(N)=O)C(=O)N[C@H]2C(=O)N[C@H]3C(=O)N[C@H](C(=O)N[C@H](C(=O)O)c4cc(O)cc(O)c4-c4cc3ccc4O)[C@H](O)c3ccc(c(Cl)c3)Oc3cc2cc(c3O[C@@H]2O[C@H](CO)[C@@H](O)[C@H](O)[C@H]2O[C@H]2C[C@](C)(N)[C@H](O)[C@H](C)O2)Oc2ccc(cc2Cl)[C@H]1O` [vancomycin HCl, reference compound], in assay [2], the “% Survivors at 120 hr” value came out at 100%, the “Survivors at 24 hr” value came out at 6, the “Survivors at 48 hr” value came to 6 and the “Survivors at 66 hr” value stood at 6. Moreover, in assay [2], the “Survivors at 72 hr” value came out at 6 and the “Survivors at 96 hr” value amounted to 6.
As to `O=c1[nH]c(NCc2ccc(Cl)c(Cl)c2)nc2ncn(CCCCN3CCOCC3)c12` [Compound 258D, 7-[4-(N-morpholinyl)butyl]-2-(3,4-dichlorobenzylamino)-6-oxopurine], the minimum inhibitory concentration (MIC) in assay [1] (Clostridioides difficile, C. diff. Strain no. 18285, Table 4, read-out: MIC) is 8 µg/mL (≈ 17.7 µM); in assay [1] (Clostridioides difficile, C. diff. Strain no. 19265, Table 4, read-out: MIC) it was 4 µg/mL (≈ 8.86 µM); in assay [1] (Clostridioides difficile, C. diff. Strain no. 19273, Table 4, read-out: MIC), 8 µg/mL (≈ 17.7 µM); in assay [1] (Clostridioides difficile, C. diff. Strain no. 19281, Table 4, read-out: MIC) it was 4 µg/mL (≈ 8.86 µM); in assay [1] (Clostridioides difficile, C. diff. Strain no. 19291, Table 4, read-out: MIC), 4 µg/mL (≈ 8.86 µM); in assay [1] (Clostridioides difficile, C. diff. Strain no. 19369, Table 4, read-out: MIC), 16 µg/mL (≈ 35.4 µM). Moreover, the minimal inhibitory concentration (MIC) in assay [1] (Clostridioides difficile, C. diff. Strain no. 19382, Table 4, read-out: MIC) amounted to 4 µg/mL (≈ 8.86 µM); in assay [1] (Clostridioides difficile, C. diff. Strain no. 19540, Table 4, read-out: MIC) it was 4 µg/mL (≈ 8.86 µM); in assay [1] (Clostridioides difficile, C. diff. Strain no. 19580, Table 4, read-out: MIC), 2 µg/mL (≈ 4.43 µM); in assay [1] (Clostridioides difficile, C. diff. Strain no. 19680, Table 4, read-out: MIC) it was 4 µg/mL (≈ 8.86 µM); in assay [1] (Clostridioides difficile, C. diff. Strain no. 19681, Table 4, read-out: MIC) it was 4 µg/mL (≈ 8.86 µM); in assay [1] (Clostridioides difficile, C. diff. Strain no. 19683, Table 4, read-out: MIC), 8 µg/mL (≈ 17.7 µM). The minimum inhibitory concentration (MIC) was 8 µg/mL (≈ 17.7 µM) in assay [1] (Clostridioides difficile, C. diff. Strain no. 19687, Table 4, read-out: MIC); 8 µg/mL (≈ 17.7 µM) in assay [1] (Clostridioides difficile, C. diff. Strain no. 20066, Table 4, read-out: MIC); 16 µg/mL (≈ 35.4 µM) in assay [1] (Clostridioides difficile, C. diff. Strain no. 20152, Table 4, read-out: MIC); 4 µg/mL (≈ 8.86 µM) in assay [1] (Clostridioides difficile, C. diff. Strain no. 20307, Table 4, read-out: MIC); 4 µg/mL (≈ 8.86 µM) in assay [1] (Clostridioides difficile, C. diff. Strain no. 20494, Table 4, read-out: MIC); 4 µg/mL (≈ 8.86 µM) in assay [1] (Clostridioides difficile, C. diff. Strain no. 20680, Table 4, read-out: MIC). Moreover, the MIC worked out at 4 µg/mL (≈ 8.86 µM) in assay [1] (Clostridioides difficile, C. diff. Strain no. 20934, Table 4, read-out: MIC) and 2 µg/mL (≈ 4.43 µM) in assay [1] (Clostridioides difficile, C. diff. Strain no. 21099, Table 4, read-out: MIC).
For `O=c1[nH]c(NCc2ccc(Cl)c(Cl)c2)nc2ncn(CCN3CCOCC3)c12` [Compound 362E], the MIC in assay [1] (setting [3]) worked out at 4 µg/mL (≈ 9.45 µM); in assay [1] (setting [4]) it was 2 µg/mL (≈ 4.72 µM); in assay [1] (setting [5]), 4 µg/mL (≈ 9.45 µM); in assay [1] (setting [6]), 2 µg/mL (≈ 4.72 µM); in assay [1] (setting [7]) it was 2 µg/mL (≈ 4.72 µM); in assay [1] (setting [8]), 8 µg/mL (≈ 18.9 µM). Also, the MIC in assay [1] (setting [9]) came to 2 µg/mL (≈ 4.72 µM); in assay [1] (setting [10]), 2 µg/mL (≈ 4.72 µM); in assay [1] (setting [11]), 2 µg/mL (≈ 4.72 µM); in assay [1] (setting [12]), 2 µg/mL (≈ 4.72 µM); in assay [1] (setting [13]), 2 µg/mL (≈ 4.72 µM); in assay [1] (setting [14]), 4 µg/mL (≈ 9.45 µM). In addition, the MIC worked out at 4 µg/mL (≈ 9.45 µM) in assay [1] (setting [15]); 4 µg/mL (≈ 9.45 µM) in assay [1] (setting [16]); 8 µg/mL (≈ 18.9 µM) in assay [1] (setting [17]); 2 µg/mL (≈ 4.72 µM) in assay [1] (setting [18]); 2 µg/mL (≈ 4.72 µM) in assay [1] (setting [19]); 2 µg/mL (≈ 4.72 µM) in assay [1] (setting [20]). Further, the figures for the MIC in assay [1] (setting [21]) and in assay [1] (setting [22]) were 1 µg/mL (≈ 2.36 µM) and 2 µg/mL (≈ 4.72 µM), respectively. Besides, the “activity against C. diff. strains compared with 359E (in words)” value in assay [1] (summary of Table 4) is “preferred activity against C. diff. strains”.

In general, MIC refers to the smallest concentration in the dilution series that meets the test's criterion for growth inhibition.

Values taken from patent publication US8796292B2, “Selective antibacterials for clostridium difficile infections” (GLSynthesis Inc., priority 2009, dated 2014).
